Measurements reported in patent US20250108119A1, “NOVEL STEROID PAYLOADS, STEROID LINKERS, ADCs CONTAINING AND USE THEREOF” (IMMUNEXT, INC., priority 2021, published 2025).

How the values were obtained:
[1] = test system: LPS stimulated human PBMCs; test: LPS stimulated human PBMC, IL-1β and IL-6 ELISA; assay type: cell-based
In short: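 Human PBMC (1-2 healthy donors), 150,000 cells/well, treated with test agents at 1,000 nM down to 1 nM or 0.2 nM, in duplicate. LPS at 1 ng/ml added immediately after free payload or 4 h after conjugates; IL-1β and IL-6 in supernatants measured by ELISA.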

FKBP5 = FKBP5 transcription in peritoneal resident macrophages (PRM) and spleen cells after in vivo treatment; design: species or system hVISTA mice; details: linker payloads as anti-VISTA conjugates; for FKBP5 induction in splenic cells (conclusions): day 1, 7, 14
[2] = test system: peritoneal resident macrophages (PRM); test: In vivo treatment/ex vivo PRM activation, TNFα and IL-6 in supernatant; design: species or system hVISTA mice
Experimental: Based thereon we developed a model to allow us to evaluate long-term anti-inflammatory impact of ADC on specific target populations, such as PRMs. […] In the absence of GC treatment, after 2h PRMs become highly activated as shown by increases in cytokine production. […] The objective of these studies was to evaluate the efficacy and pharmacodynamic range of INX human VISTA antibodies conjugated to a glucocorticoid payload as compared to free Dex.
After euthanasia, mice were injected in the peritoneal cavity with 7 ml of PBS/0.5% BSA/2 mM EDTA. After a brief massage of the peritoneum, a small incision was performed and the peritoneal lavage collected. PRM were isolated using negative selection (Miltenyi kit, ref 130-110-434). Spleen were dissected and dissociated mechanically; monocytes were isolated using […] (Stem Cell, EasySep™ Mouse CD11b Positive Selection Kit II).
PRMs were resuspended in RPMI 1640 with 10% FBS, 10 mM Hepes, Penicillin/Streptomycin and glutamine and 100,000 cells were plated per well in a 96-well tissue culture plate. Supernatants were collected at 2 and 24h post plating and stored at −80° C. […]
• BioLegend (cat #430904) ELISA MAX Deluxe Set Mouse TNF-α • BioLegend (cat #431304) ELISA MAX Deluxe Set Mouse IL-6
ELISAs were conducted following the manufacturer's included protocol.

[3] = linker/payloads as anti-VISTA conjugates

SMILES	FKBP5 induction in splenic cells (conclusions) (FKBP5)	potency in PRM cytokine model when dosed 7 days early (conclusions) [2, 3]	also measured
C[C@]12C=CC(=O)C=C1CC[C@@H]1[C@@H]2[C@@H](O)C[C@@]2(C)[C@H]1C[C@H]1O[C@@H](c3ccc(OC4CC5(CC(NC(=O)[C@H](CCC(=O)O)NC(=O)CNC(=O)CBr)C5)C4)cc3)O[C@]12C(=O)CO (stereo partly drawn) [INX A4, (S)-4-(2-(2-bromoacetamido)acetamido)-5-((6-(4-((6aR,6bS,7S,8aS,8bS,10R,11aR,12aS,12bS)-7-hydroxy-8b-(2-hydroxyacetyl)-6a,8a-dimethyl-4-oxo-2,4,6a,6b,7,8,8a,8b,11a,12,12a,12b-dodecahydro-1H-naphtho[2′,1′:4,5]indeno[1,2-d][1,3]dioxol-10-yl)phenoxy)spiro[3.3]heptan-2-yl)amino)-5-oxopentanoic acid]	only demonstrate significant induction at day 1, and 7		potency of conjugated linker payloads over INX J (conclusions) [1]: enhanced potency; FKBP5 induction when dosed 14 days early (conclusions) (FKBP5): still display significant potency when dosed 14 days early in regard to FKBP5 induction
C[C@]12C=CC(=O)C=C1CC[C@@H]1[C@@H]2[C@@H](O)C[C@@]2(C)[C@H]1C[C@H]1O[C@@H](c3ccc(Cc4cccc(NC(=O)[C@H](CCC(=O)O)NC(=O)CNC(=O)CBr)c4)cc3)O[C@]12C(=O)COP(=O)(O)O [INX L]	only demonstrate significant induction at day 1, and 7		controlling cytokine response in PRM when dosed 14 days early (conclusions) [2, 3]: significant potency in controlling cytokine response in PRM when dosed 14 days early
C[C@]12C=CC(=O)C=C1CC[C@@H]1[C@@H]2[C@@H](O)C[C@@]2(C)[C@H]1C[C@H]1O[C@@H](C34CC(Cc5cccc(NC(=O)[C@H](CCC(=O)O)NC(=O)CNC(=O)CBr)c5)(C3)C4)O[C@]12C(=O)CO [INX O, (S)-4-(2-(2-bromoacetamido)acetamido)-5-((3-((3-((6aR,6bS,7S,8aS,8bS,10R,11aR,12aS,12bS)-7-hydroxy-8b-(2-hydroxyacetyl)-6a,8a-dimethyl-4-oxo-2,4,6a,6b,7,8,8a,8b,11a,12,12a,12b-dodecahydro-1H-naphtho[2′,1′:4,5]indeno[1,2-d][1,3]dioxol-10-yl)bicyclo[1.1.1]pentan-1-yl)methyl)phenyl)amino)-5-oxopentanoic acid]		very limited and non-significant potency when conjugated to INX201	preventing ex vivo induction of TNFα and IL-6 in PRM ([2]; Experiment 9: linker payloads as conjugates, 7 days post 0.2 mg/Kg of GC payload, supernatant 24h): little and non-significant impact on the PRM cytokine response
C[C@H](NC(=O)CBr)C(=O)N[C@@H](C)C(=O)NC12CC(Cc3ccc([C@@H]4O[C@@H]5C[C@H]6[C@@H]7CCC8=CC(=O)C=C[C@]8(C)[C@H]7[C@@H](O)C[C@]6(C)[C@]5(C(=O)CO)O4)cc3)(C1)C2 [INX R, (S)-2-(2-bromoacetamido)-N—((S)-1-((3-(4-((6aR,6bS,7S,8aS,8bS,10R,11aR, 12aS,12bS)-7-hydroxy-8b-(2-hydroxyacetyl)-6a,8a-dimethyl-4-oxo-2,4,6a,6b,7,8,8a,8b,11a,12,12a,12b-dodecahydro-1H-naphtho[2′,1′:4,5]indeno[1,2-d][1,3]dioxol-10-yl)benzyl)bicyclo[1.1.1]pentan-1-yl)amino)-1-oxopropan-2-yl) propanamide]		show similar potency when dosed 7 days early	
